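48-hour exposure; five concentrations; linearly interpolated endpoints. Here, GI50 denotes the concentration required for 50% inhibition of growth. TGI denotes the concentration required for complete inhibition of growth.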
What was measured:
Assay in all cases: NCI-60 cell line screen, 48 h
SN12C renal = tested on: SN12C renal
NCI-H226 lung = tested on: NCI-H226 lung
OVCAR-8 ovarian = tested on: OVCAR-8 ovarian
LOX IMVI melanoma = tested on: LOX IMVI melanoma
K-562 leukemia = tested on: K-562 leukemia
SF-539 CNS = tested on: SF-539 CNS
M14 melanoma = tested on: M14 melanoma
CAKI-1 renal = tested on: CAKI-1 renal
U251 CNS = tested on: U251 CNS
HCT-15 colon = tested on: HCT-15 colon

`COc1ccc(C(=O)c2cc(OC)c(OC)c(OC)c2)cc1OC(=O)CCl` was tested, and the GI50 (SN12C renal) was 0.0472 µM, the TGI (SN12C renal) was > 100 µM and the GI50 (NCI-H226 lung) was 11.3 µM. The TGI (NCI-H226 lung) was > 100 µM, the GI50 (OVCAR-8 ovarian) was 0.052 µM and the TGI (OVCAR-8 ovarian) was > 100 µM. The GI50 (LOX IMVI melanoma) was < 0.0199 µM, the TGI (LOX IMVI melanoma) was > 100 µM and the GI50 (K-562 leukemia) was < 0.0123 µM. The TGI (K-562 leukemia) was > 100 µM, the GI50 (SF-539 CNS) was < 0.01 µM and the TGI (SF-539 CNS) was 0.0541 µM. For the same compound, the GI50 (M14 melanoma) was < 0.0142 µM, the GI50 (CAKI-1 renal) was 0.151 µM and the TGI (CAKI-1 renal) was > 100 µM. For the same compound, the GI50 (U251 CNS) was 0.0422 µM, the TGI (U251 CNS) was > 100 µM and the GI50 (HCT-15 colon) was < 0.0132 µM. For the same compound, the TGI (HCT-15 colon) was > 100 µM.
For `Cc1ccc(S(=O)(=O)OC2CSS(=O)CC2OS(=O)(=O)c2ccc(C)cc2)cc1` (centres undefined), the TGI (SN12C renal) was 28.5 µM, the TGI (NCI-H226 lung) was 34.4 µM and the TGI (OVCAR-8 ovarian) was 22.5 µM. For the same compound, the TGI (LOX IMVI melanoma) was 26.1 µM, the TGI (K-562 leukemia) was 21.1 µM and the TGI (SF-539 CNS) was 29.2 µM. The TGI (M14 melanoma) was 27.4 µM, the TGI (CAKI-1 renal) was 25.7 µM and the TGI (U251 CNS) was 28.1 µM. For the same compound, the TGI (HCT-15 colon) was 33.6 µM.
With `CCCCOC(=O)C1C2CCC(O2)C1C(=O)OCCCC` (centres undefined) the TGI (SN12C renal) was > 100 µM, the TGI (NCI-H226 lung) was > 100 µM and the TGI (OVCAR-8 ovarian) was > 100 µM. The TGI (LOX IMVI melanoma) was > 60.7 µM, the TGI (K-562 leukemia) was > 100 µM and the TGI (SF-539 CNS) was > 100 µM. For the same compound, the TGI (M14 melanoma) was > 82.1 µM, the TGI (CAKI-1 renal) was > 100 µM and the TGI (U251 CNS) was > 100 µM. The TGI (HCT-15 colon) was > 100 µM.
In the case of `CC(C)N(Cc1ccccc1)c1c(S)ssc1=S`, the GI50 (SN12C renal) is reported as 2.42 µM, the TGI (SN12C renal) is reported as 19.7 µM and the GI50 (NCI-H226 lung) is reported as 3.14 µM. The TGI (NCI-H226 lung) was 36.1 µM, the GI50 (OVCAR-8 ovarian) was 2.44 µM and the TGI (OVCAR-8 ovarian) was 22.2 µM. It also gave a GI50 (LOX IMVI melanoma) of 3.08 µM, a TGI (LOX IMVI melanoma) of 15.5 µM and a GI50 (K-562 leukemia) of 0.941 µM. It also gave a TGI (K-562 leukemia) of 3.81 µM, a GI50 (SF-539 CNS) of 3.06 µM and a TGI (SF-539 CNS) of 10.4 µM. The GI50 (M14 melanoma) was 4.67 µM, the TGI (M14 melanoma) was > 100 µM and the GI50 (CAKI-1 renal) was 0.661 µM. For the same compound, the TGI (CAKI-1 renal) was > 100 µM, the GI50 (U251 CNS) was 2.58 µM and the TGI (U251 CNS) was 15.9 µM. It also gave a GI50 (HCT-15 colon) of 3.16 µM and a TGI (HCT-15 colon) of 13.5 µM.
For `COc1ccc(-c2cn(-c3cc(OC)c(OC)c(OC)c3)c(SCc3ccccc3)n2)cc1OC`, the GI50 (SN12C renal) was > 100 µM, the TGI (SN12C renal) was > 100 µM and the GI50 (NCI-H226 lung) was > 100 µM. For the same compound, the TGI (NCI-H226 lung) was > 100 µM, the GI50 (OVCAR-8 ovarian) was > 100 µM and the TGI (OVCAR-8 ovarian) was > 100 µM. The GI50 (LOX IMVI melanoma) was > 100 µM, the TGI (LOX IMVI melanoma) was > 100 µM and the GI50 (K-562 leukemia) was > 100 µM. For the same compound, the TGI (K-562 leukemia) was > 100 µM, the GI50 (SF-539 CNS) was > 100 µM and the TGI (SF-539 CNS) was > 100 µM. For the same compound, the GI50 (M14 melanoma) was > 100 µM, the TGI (M14 melanoma) was > 100 µM and the GI50 (CAKI-1 renal) was > 100 µM. For the same compound, the TGI (CAKI-1 renal) was > 100 µM, the GI50 (U251 CNS) was > 100 µM and the TGI (U251 CNS) was > 100 µM. For the same compound, the GI50 (HCT-15 colon) was > 100 µM and the TGI (HCT-15 colon) was > 100 µM.
Work on `Fc1ccc2c(c1)C1=NN(c3ccccc3)C(F)C1CO2` (centres undefined) yielded a GI50 (SN12C renal) of 6.93 µM, a TGI (SN12C renal) of 14.7 µM and a GI50 (NCI-H226 lung) of 8.08 µM. For the same compound, the TGI (NCI-H226 lung) was 19.1 µM, the GI50 (OVCAR-8 ovarian) was 9.04 µM and the TGI (OVCAR-8 ovarian) was 27.3 µM. It also gave a GI50 (LOX IMVI melanoma) of 10.5 µM, a TGI (LOX IMVI melanoma) of 24.1 µM and a GI50 (K-562 leukemia) of 17.6 µM. For the same compound, the TGI (K-562 leukemia) was > 50 µM, the GI50 (SF-539 CNS) was 6.62 µM and the TGI (SF-539 CNS) was 14.9 µM. It also gave a GI50 (M14 melanoma) of 8.16 µM, a TGI (M14 melanoma) of 18.6 µM and a GI50 (CAKI-1 renal) of 6.41 µM. For the same compound, the TGI (CAKI-1 renal) was 20.2 µM, the GI50 (U251 CNS) was 7.29 µM and the TGI (U251 CNS) was 15.3 µM. For the same compound, the GI50 (HCT-15 colon) was 8.19 µM and the TGI (HCT-15 colon) was 19.9 µM.
With `COc1cc2ccc(/C=C\[N+](=O)[O-])cc2cc1OC` the TGI (SN12C renal) was 6.3 µM, the TGI (NCI-H226 lung) was 76.5 µM and the TGI (OVCAR-8 ovarian) was 9.72 µM. For the same compound, the TGI (LOX IMVI melanoma) was 3.42 µM, the TGI (K-562 leukemia) was > 24.6 µM and the TGI (SF-539 CNS) was 4.91 µM. For the same compound, the TGI (M14 melanoma) was 7.41 µM, the TGI (CAKI-1 renal) was 20 µM and the TGI (U251 CNS) was 9.87 µM. For the same compound, the TGI (HCT-15 colon) was 17.2 µM.
With `O=C(CCCCCCCCC(=O)N/N=C\c1ccccc1O)N/N=C\c1ccccc1O` the GI50 (SN12C renal) was 0.7 µM, the TGI (SN12C renal) was > 42.4 µM and the GI50 (NCI-H226 lung) was 0.49 µM. The TGI (NCI-H226 lung) was 11 µM, the GI50 (OVCAR-8 ovarian) was 0.349 µM and the TGI (OVCAR-8 ovarian) was 5.8 µM. The GI50 (LOX IMVI melanoma) was 0.273 µM, the TGI (LOX IMVI melanoma) was 6.07 µM and the GI50 (K-562 leukemia) was 0.398 µM. It also gave a TGI (K-562 leukemia) of 27.8 µM, a GI50 (SF-539 CNS) of 0.452 µM and a TGI (SF-539 CNS) of 17.4 µM. It also gave a GI50 (M14 melanoma) of 0.306 µM, a TGI (M14 melanoma) of 1.78 µM and a GI50 (CAKI-1 renal) of 0.318 µM. For the same compound, the TGI (CAKI-1 renal) was 14.9 µM, the GI50 (U251 CNS) was 0.308 µM and the TGI (U251 CNS) was 9.14 µM. The GI50 (HCT-15 colon) was 0.298 µM and the TGI (HCT-15 colon) was > 100 µM.
`CCC[CH2][Sn]1([CH2]CCC)[O]C(=O)c2cccnc2[O]1` showed a GI50 (SN12C renal) of 2.58 µM, a TGI (SN12C renal) of 8.79 µM and a GI50 (NCI-H226 lung) of 10.5 µM. The TGI (NCI-H226 lung) was 23 µM, the GI50 (OVCAR-8 ovarian) was 2.25 µM and the TGI (OVCAR-8 ovarian) was 7.64 µM. For the same compound, the GI50 (LOX IMVI melanoma) was 1.81 µM, the TGI (LOX IMVI melanoma) was 3.51 µM and the GI50 (K-562 leukemia) was 1.85 µM. For the same compound, the TGI (K-562 leukemia) was 6.01 µM, the GI50 (SF-539 CNS) was 1.87 µM and the TGI (SF-539 CNS) was 4 µM. The GI50 (M14 melanoma) was 3.11 µM, the TGI (M14 melanoma) was 10.6 µM and the GI50 (CAKI-1 renal) was 0.74 µM. For the same compound, the TGI (CAKI-1 renal) was 3.93 µM, the GI50 (U251 CNS) was 1.89 µM and the TGI (U251 CNS) was 3.79 µM. For the same compound, the GI50 (HCT-15 colon) was 1.9 µM and the TGI (HCT-15 colon) was 3.66 µM.
With `O=C(O)CNC(=O)c1ccc(-c2ccccc2)cc1` the TGI (SN12C renal) was > 100 µM, the TGI (NCI-H226 lung) was > 100 µM and the TGI (OVCAR-8 ovarian) was > 100 µM. For the same compound, the TGI (LOX IMVI melanoma) was > 100 µM, the TGI (K-562 leukemia) was > 100 µM and the TGI (SF-539 CNS) was > 100 µM. The TGI (M14 melanoma) was > 100 µM, the TGI (CAKI-1 renal) was > 100 µM and the TGI (U251 CNS) was > 100 µM. For the same compound, the TGI (HCT-15 colon) was > 100 µM.
`C#Cc1c(F)ccc2cc(O)cc(-c3ncc4c(N5CC6CCC(C5)N6)nc(OC[C@@]56CCCN5C[C@H](F)C6)nc4c3F)c12` was tested, and the GI50 (SN12C renal) was 14.8 µM, the TGI (SN12C renal) was 31 µM and the GI50 (NCI-H226 lung) was 15.1 µM. For the same compound, the TGI (NCI-H226 lung) was 35.1 µM, the GI50 (OVCAR-8 ovarian) was 17.3 µM and the TGI (OVCAR-8 ovarian) was 36.4 µM. The GI50 (LOX IMVI melanoma) was 15.5 µM, the TGI (LOX IMVI melanoma) was 41.9 µM and the GI50 (K-562 leukemia) was 8.12 µM. The TGI (K-562 leukemia) was > 65.5 µM, the GI50 (SF-539 CNS) was 14 µM and the TGI (SF-539 CNS) was 27.2 µM. It also gave a GI50 (M14 melanoma) of 14 µM, a TGI (M14 melanoma) of 29.6 µM and a GI50 (CAKI-1 renal) of 17.5 µM. It also gave a TGI (CAKI-1 renal) of 35.6 µM, a GI50 (U251 CNS) of 10.9 µM and a TGI (U251 CNS) of 31.5 µM. For the same compound, the GI50 (HCT-15 colon) was 34.7 µM and the TGI (HCT-15 colon) was > 50.6 µM.

From PubChem BioAssay (NCI)
